Experimental data as given in patent publication US9295253B2, “Use of abscisic acid on ornamental plants” (Valent BioSciences Corporation, priority 2007, dated 2016).

Assays:
excised Coleus leaves = conditions: applied through the petiole of excised Coleus leaves, compared to excised leaves standing in water; cited from earlier work
Petunia = assay: Drought tolerance and side effects after ABA drench, irrigation withheld; assay type: in vivo; conditions: drenched with 250 ppm ABA, greenhouse, no irrigation
From the text: (§1) Many different commercial ornamental crops were obtained from local retailers, or from wholesale nurseries, and transported to a greenhouse for testing. Plants were watered to saturation and allowed to stand and drain for about one hour. Plants were selected for uniformity based on leaf area and arranged in a randomized complete block design, or a completely randomized design, on the greenhouse bench. The plants were sprayed or drenched with water or treatment solution equaling about 5-10% of the pot volume. The plants were held without irrigation until all the plants wilted to a point when they were determined to be unmarketable. The plants were rated daily for the extent of wilting on a scale from 1 for no wilting to 4 for complete wilting. A rating of 2.5 was the point at which a plant was determined to be unmarketable and the previous day was recorded as the marketable life of that plant in days. The plants were rated for the extent of lower leaf yellowing or leaf or flower abscission on a scale from 1 for no yellowing or abscission to 4 for complete yellowing or abscission. A rating of 2.5 was the point at which a plant was determined to be unmarketable.
(§2) Plants were individually rated on a daily basis for degree of wilting and other undesirable characteristics like leaf yellowing.

Rose = assay: as above; assay type: in vivo; conditions: drenched with 250 ppm ABA, greenhouse, no irrigation
From the text: as §1, §2

Salvia = assay: as above; assay type: in vivo; conditions: drenched with 250 ppm ABA, greenhouse, no irrigation
From the text: as §1, §2

Impatiens = assay: as above; assay type: in vivo; conditions: drenched with 250 ppm ABA, greenhouse, no irrigation
From the text: as §1, §2

Lantana = assay: as above; assay type: in vivo; conditions: drenched with 250 ppm ABA, greenhouse, no irrigation
From the text: as §1, §2

Poinsettia = assay: as above; assay type: in vivo; conditions: drenched with 250 ppm ABA, greenhouse, no irrigation
From the text: as §1, §2

Hydrangea = assay: as above; assay type: in vivo; conditions: drenched with 250 ppm ABA, greenhouse, no irrigation
From the text: as §1, §2

Vinca = assay: as above; assay type: in vivo
From the text: as §1, §2

Alyssum = assay: as above; assay type: in vivo; conditions: drenched with 250 ppm ABA, greenhouse, no irrigation
From the text: as §1, §2

Celosia = assay: as above; assay type: in vivo; conditions: drenched with 250 ppm ABA, greenhouse, no irrigation
From the text: as §1, §2

New Guinea Impatiens = assay: as above; assay type: in vivo
From the text: as §1, §2

Marigold = assay: as above; assay type: in vivo; conditions: drenched with 250 ppm ABA, greenhouse, no irrigation
From the text: as §1, §2

Pentas = assay: as above; assay type: in vivo; conditions: drenched with 250 ppm ABA, greenhouse, no irrigation
From the text: as §1, §2

Snapdragon = assay: as above; assay type: in vivo; conditions: drenched with 250 ppm ABA, greenhouse, no irrigation
From the text: as §1, §2

Pansy = assay: as above; assay type: in vivo
From the text: as §1, §2

Agapanthus = assay: as above; assay type: in vivo; conditions: drenched with 250 ppm ABA, greenhouse, no irrigation
From the text: as §1, §2

Calibrachoa = assay: as above; assay type: in vivo; conditions: drenched with 250 ppm ABA, greenhouse, no irrigation
From the text: as §1, §2

Coleus = assay: as above; assay type: in vivo; conditions: drenched with 250 ppm ABA, greenhouse, no irrigation
From the text: as §1, §2

Cosmos = assay: as above; assay type: in vivo; conditions: drenched with 250 ppm ABA, greenhouse, no irrigation
From the text: as §1, §2

Dianthus = assay: as above; assay type: in vivo; conditions: drenched with 250 ppm ABA, greenhouse, no irrigation
From the text: as §1, §2

Cuphea = assay: as above; assay type: in vivo; conditions: drenched with 250 ppm ABA, greenhouse, no irrigation
From the text: as §1, §2

Gazania = assay: as above; assay type: in vivo; conditions: drenched with 250 ppm ABA, greenhouse, no irrigation
From the text: as §1, §2

Euryops = assay: as above; assay type: in vivo; conditions: drenched with 250 ppm ABA, greenhouse, no irrigation
From the text: as §1, §2

Lobelia = assay: as above; assay type: in vivo; conditions: drenched with 250 ppm ABA, greenhouse, no irrigation
From the text: as §1, §2

Chrysanthemum = assay: as above; assay type: in vivo; conditions: drenched with 250 ppm ABA, greenhouse, no irrigation
From the text: as §1, §2

potted Poinsettia plants = conditions: foliar application; cited from earlier work
[1] = drenched with 250 ppm ABA, greenhouse, no irrigation

In the case of “(S)-5-(1-hydroxy-2,6,6,-trimethyl-4-oxo-2-cyclohexen-1-yl)-3-methyl-(2Z,4E)-pentadienoic acid [ABA]”, the Transpiration rate (excised Coleus leaves) is given as “reduces their transpiration rate”, the “Market life extension (days of additional market life compared to control plants due to delayed wilting)” value (Petunia) is given as 3.5 days and the “Market life extension (days of additional market life compared to control plants due to delayed wilting)” value (Rose) is given as 0 days. The “Market life extension (days of additional market life compared to control plants due to delayed wilting)” value (Salvia) was 1.9 days, the “Market life extension (days of additional market life compared to control plants due to delayed wilting)” value (Impatiens) was 2.0 days and the “Market life extension (days of additional market life compared to control plants due to delayed wilting)” value (Lantana) was 2.4 days. For the same substance, the “Market life extension (days of additional market life compared to control plants due to delayed wilting)” value (Poinsettia) was 2.0 days, the “Market life extension (days of additional market life compared to control plants due to delayed wilting)” value (Hydrangea) was 3.4 days and the “Drought tolerance of treated plants (in words)” value (“Drought tolerance” for short) (Vinca; ABA application) was “more drought tolerant”. The “Market life extension (days of additional market life compared to control plants due to delayed wilting)” value (Vinca; [1]) was 2.5 days, the “Market life extension (days of additional market life compared to control plants due to delayed wilting)” value (Alyssum) was 0 days and the “Market life extension (days of additional market life compared to control plants due to delayed wilting)” value (Celosia) was 2.3 days. The “Drought tolerance” value (New Guinea Impatiens; ABA application) was “much greater drought tolerance”, the “Market life extension (days of additional market life compared to control plants due to delayed wilting)” value (New Guinea Impatiens; [1]) was 3.3 days and the “Market life extension (days of additional market life compared to control plants due to delayed wilting)” value (Marigold) was 1.9 days. The “Market life extension (days of additional market life compared to control plants due to delayed wilting)” value (Pentas) was 2.8 days, the “Market life extension (days of additional market life compared to control plants due to delayed wilting)” value (Snapdragon) was 1.5 days and the “Drought tolerance” value (Pansy; ABA application) was “more drought tolerant”. The “Market life extension (days of additional market life compared to control plants due to delayed wilting)” value (Pansy; [1]) was 1.6 days, the “Market life extension (days of additional market life compared to control plants due to delayed wilting)” value (Agapanthus) was 0 days and the “Market life extension (days of additional market life compared to control plants due to delayed wilting)” value (Calibrachoa) was 0 days. The “Market life extension (days of additional market life compared to control plants due to delayed wilting)” value (Coleus) was 2.3 days, the “Market life extension (days of additional market life compared to control plants due to delayed wilting)” value (Cosmos) was 1.4 days and the “Market life extension (days of additional market life compared to control plants due to delayed wilting)” value (Dianthus) was 1.6 days. For the same substance, the “Market life extension (days of additional market life compared to control plants due to delayed wilting)” value (Cuphea) was 2.3 days, the “Market life extension (days of additional market life compared to control plants due to delayed wilting)” value (Gazania) was 0 days and the “Market life extension (days of additional market life compared to control plants due to delayed wilting)” value (Euryops) was 3.3 days. The “Market life extension (days of additional market life compared to control plants due to delayed wilting)” value (Lobelia) was 2.5 days, the “Market life extension (days of additional market life compared to control plants due to delayed wilting)” value (Chrysanthemum) was 2.0 days and the Transpiration (potted Poinsettia plants) was “reduced the transpiration”.
